Measurements from patent US10799457B2, “Exosomal compositions and methods for the treatment of disease” (priority 2010, dated 2020).

Columns and labels:
[1] = In vitro stability assay in PBS (pH 7.4) at 37° C.; type: physicochemical; settings: 150 min
Description: The fold reduction of the concentration at each time was determined by comparison to the beginning value. The experiments were repeated three times for each time point (n=3).

[2] = system: C57BL/6 mice; experiment: Experimental autoimmune encephalitis (EAE), MOG 35-55 induced; type: in vivo; settings: intranasal daily from day 4, 1.5 nmoles; scale 0-5
Description: EAE was induced in six-week-old female C57BL/6 mice using a procedure described previously (67). Briefly, mice were primed subcutaneously in the flanks with 150 μg of Myelin Oligodendrocyte Glycoprotein (MOG) 35-55 peptide (Biosynthesis, Lewisville, Tex.) per animal. The peptide was emulsified in complete Freund's adjuvant (CFA) containing 1 mg/ml of Mycobacterium tuberculosis H37RA (Difco, Detroit, Mich.). Two days later the mice were injected IP with 500 ng of Pertussis toxin (Alexis Corp., San Diego, Calif.) in 100 μl of PBS. Mice (n=10) were treated intranasally with daily doses of 1.5 nmoles of Exo-cur, or with Cur- or Exo-controls in PBS or PBS-control for 26 consecutive days. […] The mice were scored as follows: 0, no detectable signs of EAE; 1, complete limp tail; 2, limp tail and hindlimb weakness; 3, severe hindlimb weakness; 4, complete bilateral hindlimb paralysis; 5, total paralysis of both forelimbs and hindlimbs or death.
Relative quantification of select mRNA was performed using a CFX96 Realtime System and SsoFast™ Evagreen® supermixture (Bio-Rad Laboratories, Hercules, Calif.) according to the manufacturer's instructions. […] Fold changes in mRNA expression between treatments and controls were determined the ΔCT method (91). Fluorescence threshold cycle (Ct) values were calculated using SDS 700 System Software (Bio-Rad Laboratories, Hercules, Calif.). […]

[3] = system: C57BL/6j mice; experiment: LPS mouse septic shock model; type: in vivo; settings: 16 hours after IP injection of LPS, 4 mg/kg IP
Description: Mouse mortality was monitored over a period of 4 days. The sera were collected 16 hr after LPS injection and used to determine IL-6 and TNF-α levels using ELISAs as before. At day 1 after LPS challenge, 3 mice from each treated group were sacrificed and the leukocytes in the lungs were isolated using a method described previously (21). The percentage of CD11b^+Gr-1^+ cells in the lung was determined by FACS analysis.
Briefly, to monitor mice mortality, a LD50 (median lethal dose) of LPS was determined first. LPS (5 mg/ml, Sigma, St. Louis, Mo.) was then prepared with sterile H2O and varied amounts of LPS were IP injected into the same batch of commercially supplied C57BL/6j mice. Each group contained 6 mice. […] Exosomes and PBS injections served as controls.

[4] = system: Gr1^+ cells; experiment: Gr1+ cell apoptosis, Annexin V FACS analysis; type: cell-based, Mouse; settings: 5 μM and 10 μM, 8 hours, Annexin V-FITC FACS
Description: For cell surface marker staining, isolated cells were blocked at 4° C. for 5 min with 10 μg/ml mouse Fc block (BD Biosciences, San Jose, Calif.) and then reacted with various fluorochrome-labeled antibodies including appropriate isotype controls for 30 min at 4° C. After washing twice, cells were fixed and analyzed using a FACSCalibur flow cytometer (Becton Dickinson Biosciences, San Jose, Calif.). Data were analyzed using FlowJo software (Tree Star, Inc., Ashland, Oreg.). The following antibodies were used for immunostaining: FITC-Annexing V (Invitrogen, Carlsbad, Calif.), APC anti-mouse CD11b and PE anti-mouse Gr-1 (eBiosciences, San Diego, Calif.).
Mouse bone marrow cells were isolated as described previously (22). The isolated bone marrow cells were re-suspended to a concentration of 1×10^8 cells/ml using RPMI 1640 medium supplemented with 10% FBS. A Gr1-PE conjugated antibody (3 μg/ml), following a mouse FcR blocking specific antibody (5 μl/ml), was added, mixed thoroughly and incubated at 4° C. for 15 min. After centrifugation at 1500 rpm for 5 min, cells were re-suspended in fresh medium to a concentration of 1×10^8 cells/ml. EasySep® PE selection cocktail (25 μl/ml, StemCell Technologies, Vancouver, British Columbia) was added to the cells and incubated at 4° C. for 15 min. […]

COc1cc(/C=C/C(=O)CC(=O)/C=C/c2ccc(O)c(OC)c2)ccc1O [curcumin]
curcumin remaining after incubation compared to the 0 min sample [1]: 25%
EAE disease severity score [2]: 3.60±0.12
sera level of IL-6 [3]: similar
sera level of TNF-α [3]: similar
Gr1+ cell apoptosis [4]: induces Gr1^+ cell apoptosis
